Several values for one entry are separate records, joined by “and”; a condition that tells them apart may be missing. Equal values may be shown once.
Target: T1, Muscarinic acetylcholine receptor M1 (Homo sapiens, UniProt P11229)
T1 sequence (P11229 whole entry): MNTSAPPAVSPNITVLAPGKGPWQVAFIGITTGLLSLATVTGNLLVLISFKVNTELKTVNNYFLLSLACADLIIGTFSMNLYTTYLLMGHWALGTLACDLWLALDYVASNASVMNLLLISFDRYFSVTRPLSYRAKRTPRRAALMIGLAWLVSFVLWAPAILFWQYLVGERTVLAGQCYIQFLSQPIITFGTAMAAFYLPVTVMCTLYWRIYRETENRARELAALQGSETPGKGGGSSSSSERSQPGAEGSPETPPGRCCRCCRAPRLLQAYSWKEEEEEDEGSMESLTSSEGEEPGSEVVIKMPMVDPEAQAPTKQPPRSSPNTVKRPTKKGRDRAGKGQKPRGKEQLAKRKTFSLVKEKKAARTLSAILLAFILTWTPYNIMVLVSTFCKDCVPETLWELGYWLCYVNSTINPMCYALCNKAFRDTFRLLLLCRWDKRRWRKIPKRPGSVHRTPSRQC
Experiment: Positive allosteric modulator activity at human muscarinic M1 receptor by calcium mobilization assay

EC50: 3.31 µM and 3.3 µM
SMILES: Cn1cc(-c2ccc(CN3C(=O)C(O)(C(F)(F)F)c4ccccc43)c(F)c2)cn1 (stereo unspecified)

— BindingDB's records for doi:10.1016/j.bmcl.2012.11.092 (Vanderbilt University Medical Center, 2012)
